The subject of test [1] is HL-60. Nature of the test: cell viability (% survival relative to DMSO control); higher = less cytotoxic. The conditions noted are these: 72 h. A digest of the protocol: (§1)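 Area under the curve, where listed, was derived from four-parameter log-logistic fits with drc and PharmacoGx. These fits used CellTiter-Glo viability from HL-60 cells in RPMI 1640 with 10% FBS, normalised to DMSO wells and wells holding 10 μM proteasome inhibitor. The full library was rescreened on 384-well plates in duplicate at five tenfold concentrations, 1–10,000 nM, with DMSO or 100 nM of one of three metabolic inhibitors, for 72 h at 37 °C, 5% CO2.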

The subject of test [2] is HL-60. Description: area under dose-response curve (viability, 1 nM-10 uM) (fraction (0-1)); higher = more sensitive. The conditions noted are these: 72 h. A digest of the protocol:
as §1

[3] abbreviates: 0.001 µM, co-treatment: AZD3965 100 nM.
The mark [4] stands for this setting: 0.001 µM, co-treatment: DMSO vehicle.
Setting [5] is: 0.001 µM, co-treatment: GSK2194069 100 nM.
The mark [6] stands for this setting: 0.001 µM, co-treatment: pictilisib 100 nM.
The mark [7] stands for this setting: 0.01 µM, co-treatment: AZD3965 100 nM.
[8] abbreviates: 0.01 µM, co-treatment: DMSO vehicle.
Where [9] appears, read: 0.01 µM, co-treatment: GSK2194069 100 nM.
The mark [10] stands for this setting: 0.01 µM, co-treatment: pictilisib 100 nM.
[11] abbreviates: 0.1 µM, co-treatment: AZD3965 100 nM.
[12] abbreviates: 0.1 µM, co-treatment: DMSO vehicle.
The mark [13] stands for this setting: 0.1 µM, co-treatment: GSK2194069 100 nM.
[14] abbreviates: 0.1 µM, co-treatment: pictilisib 100 nM.
Setting [15] is: 1 µM, co-treatment: AZD3965 100 nM.
[16] abbreviates: 1 µM, co-treatment: DMSO vehicle.
[17] abbreviates: 1 µM, co-treatment: GSK2194069 100 nM.
[18] abbreviates: 1 µM, co-treatment: pictilisib 100 nM.
The mark [19] stands for this setting: 10 µM, co-treatment: AZD3965 100 nM.
The mark [20] stands for this setting: 10 µM, co-treatment: DMSO vehicle.
[21] abbreviates: 10 µM, co-treatment: GSK2194069 100 nM.
Where [22] appears, read: 10 µM, co-treatment: pictilisib 100 nM.
Where [23] appears, read: co-treatment: GSK2194069 100 nM.
Setting [24] is: co-treatment: pictilisib 100 nM.

± gives the standard deviation of the averaged measurements.

Turning to `O=C([O-])CC(O)(C(=O)[O-])C(O)C(=O)[O-].[K+].[K+].[K+]` (stereo not given) [Hydroxycitrate], the cell viability in the test on HL-60 [1] (setting [3]) came out at 87.2 ± 28%; with HL-60 [1] (setting [4]), 97.7 ± 6.6%; in the test on HL-60 [1] (setting [5]), 101 ± 10%; with HL-60 [1] (setting [6]), 93.7 ± 14%; in the test on HL-60 [1] (setting [7]), 94.9 ± 3.3%; in the test on HL-60 [1] (setting [8]), 97.98 ± 0.11%. For the same molecule, the cell viability in the test with HL-60 [1] (setting [9]) amounted to 99.09 ± 0.31%; with HL-60 [1] (setting [10]), 90.3 ± 14%; with HL-60 [1] (setting [11]) it was 100 ± 2.7%; with HL-60 [1] (setting [12]), 103.8 ± 0.85%; in the test on HL-60 [1] (setting [13]) it was 103 ± 3.8%; in the test on HL-60 [1] (setting [14]), 108 ± 10%. The cell viability came to 106.2 ± 0.079% in the test with HL-60 [1] (setting [15]); 87.7 ± 10% in the test on HL-60 [1] (setting [16]); 95.3 ± 9.5% with HL-60 [1] (setting [17]); 97.3 ± 11% in the test on HL-60 [1] (setting [18]); 97.3 ± 2.8% in the test on HL-60 [1] (setting [19]); 92.4 ± 6.2% in the test on HL-60 [1] (setting [20]). The cell viability in the test on HL-60 [1] (setting [21]) turned out to be 98.1 ± 6.8%; in the test with HL-60 [1] (setting [22]), 94.4 ± 9.3%. Moreover, the “area under dose-response curve” value with HL-60 [2] (co-treatment: AZD3965 100 nM), in the test with HL-60 [2] (co-treatment: DMSO vehicle), in the test on HL-60 [2] (setting [23]) and with HL-60 [2] (setting [24]) was below 0.0301 each time.

On to `CCCCCN(C)CCC(O)(P(=O)(O)O)P(=O)(O)O` [Ibandronate], for which the cell viability was found to be 101 ± 4% in the test with HL-60 [1] (setting [3]); 101 ± 3% in the test with HL-60 [1] (setting [4]); 98.3 ± 3.5% in the test on HL-60 [1] (setting [5]); 103 ± 12% in the test on HL-60 [1] (setting [6]); 90.6 ± 11% in the test with HL-60 [1] (setting [7]); 99.4 ± 3.6% with HL-60 [1] (setting [8]). For the same molecule, the cell viability with HL-60 [1] (setting [9]) is 98.1 ± 3.2%; in the test with HL-60 [1] (setting [10]) it was 87.2 ± 3.4%; in the test on HL-60 [1] (setting [11]), 108.2 ± 0.12%; in the test with HL-60 [1] (setting [12]) it was 104 ± 2.7%; in the test with HL-60 [1] (setting [13]), 104 ± 2.5%; with HL-60 [1] (setting [14]), 101 ± 3.7%. The cell viability with HL-60 [1] (setting [15]) amounted to 94.15 ± 0.69%; with HL-60 [1] (setting [16]) it was 99.1 ± 3.3%; with HL-60 [1] (setting [17]), 94.4 ± 2.5%; with HL-60 [1] (setting [18]), 94.3 ± 2%; with HL-60 [1] (setting [19]), 99.33 ± 0.86%; in the test with HL-60 [1] (setting [20]) it was 106 ± 1.4%. Also, the cell viability in the test with HL-60 [1] (setting [21]) came out at 99 ± 1.6%; with HL-60 [1] (setting [22]), 99.9 ± 3.8%. The “area under dose-response curve” value with HL-60 [2] (co-treatment: AZD3965 100 nM), with HL-60 [2] (co-treatment: DMSO vehicle), in the test with HL-60 [2] (setting [23]) and in the test with HL-60 [2] (setting [24]) was below 0.0301 throughout.

On to `Cc1cc(C(=O)NNCc2ccccc2)no1` [Isocarboxazid], for which the cell viability with HL-60 [1] (setting [3]) worked out at 103 ± 2.5%; with HL-60 [1] (setting [4]), 102 ± 8.1%; in the test on HL-60 [1] (setting [5]) it was 101 ± 4%; in the test on HL-60 [1] (setting [6]), 102 ± 2.6%; in the test on HL-60 [1] (setting [7]), 103 ± 6.9%; with HL-60 [1] (setting [8]), 101 ± 3.7%. Also, the cell viability in the test on HL-60 [1] (setting [9]) was determined as 102 ± 6%; in the test on HL-60 [1] (setting [10]), 96.8 ± 7.7%; in the test on HL-60 [1] (setting [11]), 94.9 ± 20%; in the test with HL-60 [1] (setting [12]), 96.3 ± 7.4%; in the test on HL-60 [1] (setting [13]), 87 ± 17%; with HL-60 [1] (setting [14]) it was 86.6 ± 22%. Moreover, the cell viability with HL-60 [1] (setting [15]) came out at 99.03 ± 0.43%; with HL-60 [1] (setting [16]), 99.7 ± 2%; in the test on HL-60 [1] (setting [17]), 102 ± 1.1%; in the test on HL-60 [1] (setting [18]), 103 ± 3.1%; in the test on HL-60 [1] (setting [19]), 101 ± 2.6%; with HL-60 [1] (setting [20]), 100 ± 1.7%. The cell viability was 98.2 ± 5.2% in the test on HL-60 [1] (setting [21]) and 90 ± 3.2% in the test on HL-60 [1] (setting [22]). The “area under dose-response curve” value with HL-60 [2] (co-treatment: AZD3965 100 nM), in the test on HL-60 [2] (co-treatment: DMSO vehicle), with HL-60 [2] (setting [23]) and in the test on HL-60 [2] (setting [24]) was below 0.0301 each time.

As for `CCn1c(=Cc2cccc[n+]2CC)sc(=C2Sc3ccccc3N2C)c1=O` [MKT 077], the cell viability is 95.2 ± 2.8% in the test on HL-60 [1] (setting [3]); 102 ± 4.8% in the test on HL-60 [1] (setting [4]); 92 ± 3% in the test with HL-60 [1] (setting [5]); 95.6 ± 3.1% with HL-60 [1] (setting [6]); 102 ± 3.6% with HL-60 [1] (setting [7]); 105 ± 2.6% in the test with HL-60 [1] (setting [8]). Besides, the cell viability with HL-60 [1] (setting [9]) was determined as 104 ± 8.8%; in the test on HL-60 [1] (setting [10]), 113.3 ± 0.81%; in the test on HL-60 [1] (setting [11]), 97.3 ± 6.6%; in the test on HL-60 [1] (setting [12]), 97.35 ± 0.5%; with HL-60 [1] (setting [13]), 96 ± 2%; in the test with HL-60 [1] (setting [14]), 99.2 ± 3.6%. Moreover, the cell viability came out at 88.22 ± 0.49% with HL-60 [1] (setting [15]); 100.14 ± 0.022% with HL-60 [1] (setting [16]); 76.1 ± 3.7% in the test with HL-60 [1] (setting [17]); 93.3 ± 3.5% in the test with HL-60 [1] (setting [18]); 97.7 ± 8.2% in the test with HL-60 [1] (setting [19]); 106 ± 3.7% with HL-60 [1] (setting [20]). Moreover, the values for the cell viability with HL-60 [1] (setting [21]) and with HL-60 [1] (setting [22]) were 73.5 ± 28% and 110 ± 18%, respectively. Besides, the “area under dose-response curve” value in the test on HL-60 [2] (co-treatment: AZD3965 100 nM), with HL-60 [2] (co-treatment: DMSO vehicle) and with HL-60 [2] (setting [24]) was below 0.0301 throughout.

The cell viability is a read-out of living cells in per cent, often relative to untreated cells.
